“And” between values parts separate entries of the source, which are not always exact repeats. Equal entries are not always repeated. Where two headings read alike, the source gives them in different places.
Legend:
mu3 opiate receptor [1] = molecular target: T1, mu3 opiate receptor (Homo sapiens, UniProt P35372); experiment: biochemical; format: binding
T1 construct: aliquots of membrane suspensions from human granulocytes and lung non-small cell carcinoma; from tissue; host or cells: human granulocytes, human monocytes, normal lung, non-small cell lung carcinoma tissue, vascular tissue
Procedure: Binding was studied in human granulocytes, normal lung, and non-small cell lung carcinoma tissue. The separate materials were washed and homogenized in 50 volumes of 0.32 M sucrose (pH 7.4) at 4° C. […] Briefly, aliquots of membrane suspensions from human granulocytes and lung non-small cell carcinoma (less 9% lymphocyte infiltrate) were incubated with non-radioactive compounds at six concentrations for 10 minutes at 22° C. and then with 40 nM of ^3H-dihydromorphine ([^3H]-DHM) for 60 minutes at 4° C. One hundred percent binding is defined as bound [^3H]-DHM in the presence of 10 μM dextrophan minus bound [^3H]-DHM in the presence of 10 μM levorphanol. The IC50 values are defined as the concentration of drug that elicits half-maximal inhibition of specific binding. The mean SEM for three experiments is given.

mu3 opiate receptor [2] = molecular target: T1, mu3 opiate receptor; format: cell-based
[3] = system: estrogen surface receptor (ESR1); experiment: NO release from ITA fragments and cultured arterial endothelial cells, estrogen compounds; format: cell-based, human
Excerpt: Internal thoracic artery (ITA) segments were obtained from patients undergoing elective coronary artery bypass grafting (CABG) for atherosclerotic coronary artery disease. Patients with chronic illnesses, such as diabetes or cancer as well as acute processes (e.g., known infections, trauma), were excluded.
Prior to measuring NO release, the cells were exposed to a concentration gradient of the various ligands.

[4] = system: estrogen surface receptor (ESR1); experiment: Intracellular calcium (fura-2) in human arterial endothelial cells, estrogen compounds; format: cell-based; conditions: for effect of prior exposure on 17β-estradiol-induced [Ca^2+]i increase: tamoxifen 1 nM, ICI 182, 780 1 μM
Procedure: Human arterial endothelial cells were purchased from Cell Systems (Eugene, Oregon) and grown at 37° C., 5% CO2 in chamber slides (Nunc Int.) with CS-C medium (Cell Systems) supplemented with 10% fetal calf serum and endothelial growth factor. Intracellular calcium levels were measured by dual emission microfluorimetry using the fluorescent dye fura-2/AM. Cells were loaded with the fluorescent ion indicator as follows. […] Cells were washed twice with PBS and then test drugs were added. […] Experiments were carried out at room temperature in PBS without calcium/magnesium. Receptor antagonists, when used, were administered 2 minutes prior to the respective agonist.
Intracellular calcium levels in human arterial endothelial cells were monitored as described herein for the mu3 studies.

mu3 opiate receptor [5] = molecular target: T1, mu3 opiate receptor; format: cell-based; remark: listed apart in the source
Procedure: The system was calibrated daily using different concentrations of the nitrosothiol donor S-nitroso-N-acetyl-DL-penicillamine (SNAP; Sigma, St. Louis, Mo.) to generate a standard curve. The concentration of NO gas in solution was measured in real-time with the DUO 18 computer data acquisition system (World Precision Instruments). Each experiment was simultaneously performed with a control (vehicle alone) to exclude experimental drift in NO release unrelated to the administration of compounds.

T1 sequence (P35372 1-314 isoform P35372-14): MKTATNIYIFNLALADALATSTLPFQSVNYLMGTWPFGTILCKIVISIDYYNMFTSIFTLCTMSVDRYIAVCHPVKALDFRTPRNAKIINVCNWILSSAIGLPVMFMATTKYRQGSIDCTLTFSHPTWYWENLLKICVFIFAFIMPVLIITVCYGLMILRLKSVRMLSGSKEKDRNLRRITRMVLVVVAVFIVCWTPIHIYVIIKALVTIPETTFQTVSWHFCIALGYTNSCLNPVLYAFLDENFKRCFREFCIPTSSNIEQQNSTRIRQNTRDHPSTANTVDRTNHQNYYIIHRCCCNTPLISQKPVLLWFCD

CN1CC[C@]23c4c5ccc(O)c4O[C@H]2[C@@H](O)CC[C@H]3[C@H]1C5 [Dihydromorphine]
IC50 (mu3 opiate receptor [1]; Displacement of [3H]-DHM IC50): 33 nM and 27 nM and 28.5 nM

CC(C)C[C@@H](NC(=O)[C@H](Cc1ccccc1)NC(=O)CNC(=O)[C@@H](C)NC(=O)[C@@H](N)Cc1ccc(O)cc1)C(=O)O [DADLE, (D-Ala^2, Leu^5)-enkephalin]
stimulation of intracellular calcium level increases in endothelial cells (mu3 opiate receptor [2]): did not stimulate

C[C@]12CC[C@@H]3c4ccc(O)cc4CC[C@H]3[C@@H]1CC[C@H]2O [17α-estradiol]
stimulation of NO release [3]: did not stimulate

C[C@]12CC[C@@H]3c4ccc(O)cc4CC[C@H]3[C@@H]1CC[C@@H]2O [17β-estradiol]
NO release at 10 pM [3]: failed to stimulate a significant increase
NO release in Ca-leached endothelial cells [3]: 1.8 ± 0.6 nM
NO release peak value [3]: 16.1 nM
concentration of maximal effect on NO release [3]: 1 nM
peak value of NO release (non-leached comparison) [3]: 16.0 ± 2.7 nM
response of ITA with endothelial lining scraped off [3]: non-responsive
time period of NO release [3]: 10 min
time to peak of NO release [3]: ≤ 2 min
[Ca^2+]i after leaching of intracellular calcium stores ([4]; 17β-estradiol 1 nM, 3 hour Ca-free incubation, medium changed six times): 3.8±0.6
EC50 ([4]; stated with the [Ca^2+]i results): 0.5 nM

CSCC[C@H](NC(=O)[C@H](Cc1ccccc1)NC(=O)CNC(=O)[C@@H](C)NC(=O)[C@@H](N)Cc1ccc(O)cc1)C(N)=O [DAMA, (D-Ala^2, Met^5)-enkephalinamide]
stimulation of intracellular calcium level increases in endothelial cells (mu3 opiate receptor [2]; concentration range 1 pM to 1 μM): did not stimulate
NO release at 4 minutes post morphine exposure (mu3 opiate receptor [5]): 5.2 ± 1.4 nM
effect of pre-treatment on morphine-induced NO release (mu3 opiate receptor [5]; 1 nM peptide, vascular tissue, human monocytes, human granulocytes): prevented
inhibition of morphine-induced NO release (mu3 opiate receptor [5]; 1 nM peptide, vascular tissue, 4 to 10 minute time points): significantly (P<0.05) inhibited
NO release at 4 minutes (mu3 opiate receptor [5]; vascular tissue, DAMA alone 1 nM): 0.0 nM
IC50 (mu3 opiate receptor [1]; GRANULOCYTES membranes, 40 nM [3H]-DHM, mean ± SEM, three experiments, read-out: Displacement of [3H]-DHM IC50): > 1000 nM
IC50 (mu3 opiate receptor [1]; LUNG CARCINOMA (non-small cell) membranes, 40 nM [3H]-DHM, mean ± SEM, read-out: Displacement of [3H]-DHM IC50): > 1000 nM
IC50 (mu3 opiate receptor [1]; NORMAL LUNG membranes, 40 nM [3H]-DHM, mean ± SEM, read-out: Displacement of [3H]-DHM IC50): > 1000 nM

C[C@@H](NC(=O)[C@@H](N)Cc1ccc(O)cc1)C(=O)NCC(=O)N(C)[C@@H](Cc1ccccc1)C(=O)NCCO [DAMGO, (Tyr-D-Ala^2, Gly-N-Me-Phe^4, Gly(ol)^5)-enkephalin]
stimulation of endothelial [Ca^2+]i increases (mu3 opiate receptor [2]): did not stimulate
effect of pre-treatment on morphine-induced NO release (mu3 opiate receptor [5]): prevented
effect on NO release (compound alone) (mu3 opiate receptor [5]): no effect
inhibition of morphine-induced NO release (mu3 opiate receptor [5]): significantly (P<0.05) inhibited

CC/C(=C(\c1ccccc1)c1ccc(OCCN(C)C)cc1)c1ccccc1 [Tamoxifen]
effect of pre-treatment on 17β-estradiol-induced NO release [3]: significantly diminished
effect of pre-treatment on E2-BSA-induced NO release [3]: blocked
effect of prior exposure on 17β-estradiol-induced [Ca^2+]i increase [4]: blocked

COC(=O)[C@@H](N)CCCNC(=N)N[N+](=O)[O-] [L-NAME, N omega-nitro-L-arginine methyl ester]
effect of pretreatment on morphine-induced NO release (mu3 opiate receptor [5]; human granulocytes): inhibited

Oc1ccc2c3c1O[C@H]1c4[nH]c5ccccc5c4C[C@@]4(O)[C@@H](C2)N(CC2CC2)CC[C@]314 [Naltrindole]
NO release (mu3 opiate receptor [5]): 12.0 ± 3.4 nM
effect on the inhibition of morphine-induced NO release by DAMA (mu3 opiate receptor [5]): blocked

C[C@]12CC[C@@H]3c4ccc(O)cc4C[C@@H](CCCCCCCCC[S+]([O-])CCCC(F)(F)C(F)(F)F)[C@H]3[C@@H]1CC[C@@H]2O (stereo partly shown) [ICI 182, 780]
effect of pre-treatment on 17β-estradiol-induced NO release ([3]; ITA fragments and cultured arterial endothelial cells, tamoxifen 1 nM, ICI 182,780 1 nM, L-NAME 100 μM, 5 minutes before agonist): failed to inhibit
effect of pre-treatment on E2-BSA-induced NO release ([3]; ITA fragments and cultured arterial endothelial cells, tamoxifen, ICI 182,780 1 nM, L-NAME 100 μM, 5 minutes before agonist): failed to inhibit
effect of prior exposure on 17β-estradiol-induced [Ca^2+]i increase [4]: not

From patent US6524805B1 (priority 1997, dated 2003)
